Measured values: US5240928A, “Substituted quinazolinones as angiotensin II antagonists” (Merck & Co., Inc., priority 1991, dated 1993)

Test: pKa
Assay type: physicochemical

pKa: 4.7
SMILES: CCCc1nc2ccc(C)cc2c(=O)n1Cc1ccc(-c2ccccc2-c2nn[nH]n2)cc1 [Example 76]
